Where a name gives a salt, the structure may show the parent alone.
Experiments:
Format in all cases: cell-based, human
[1] = test system: non-SEM-type gastric cancer cell line; assay: Cell viability drug screen, AUC summary over non-SEM-type lines; conditions: in the non-SEM-type gastric cancer cell line
FU97 = assay: Cell viability drug screen, 12-point dose-response AUC; parameters: Average Area Under the Viability Curve (AUC), AUC norm value: scale not given here; conditions: FU97 cells; 72 hours
Procedure, shortened: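 Trapezoidal AUC of a 12-point, DMSO-normalized dose-response curve. Luminescent viability was measured after 72 h of exposure at 37° C to half-log serial dilutions (0.5% DMSO control), dosed 24 h after plating FU97 cells at 5×10^3 per well.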

NCI_N87 = assay: as above; conditions: NCI_N87 cells; 72 hours
Procedure, shortened: (§1)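 Gastric cancer lines seeded 5×10^3 cells/well, dosed after 24 h with half-log 12-point compound dilutions (DMSO 0.5% control), then 72 h at 37 °C. Viability by luminescence, normalized to DMSO; AUC by trapezoidal method, averaged over repeats.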

SNU620 = assay: as above; conditions: SNU620 cells; 72 hours
Procedure, shortened: as §1

SNU1967 = assay: as above; conditions: SNU1967 cells; 72 hours
Procedure, shortened: as §1

SNU1750 = assay: as above; conditions: SNU1750 cells (SEM subtype); 72 hours
Procedure, shortened: as §1

KATO3 = assay: as above; conditions: KATO3 cells; 72 hours
Procedure, shortened: as §1

MKN45 = assay: as above; conditions: MKN45 cells (non-SEM subtype); 72 hours
Procedure, shortened: (§2)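 Luminescent viability readings, taken 15 min after reagent addition at room temperature, were normalized to the 0.5% DMSO control to build 12-point dose-response curves. Trapezoidal integration gave the AUC. Cells had been plated at 5×10^3 per well and then exposed to half-log dilutions for 72 h.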

SNU1 = assay: as above; conditions: SNU1 cells; 72 hours
Procedure, shortened: as §1

SNU638 = assay: as above; conditions: SNU638 cells; 72 hours
Procedure, shortened: as §1

YCC11 = assay: as above; conditions: YCC11 cells (SEM subtype); 72 hours
Procedure, shortened: as §1

SNU668 = assay: as above; conditions: SNU668 cells (SEM subtype); 72 hours
Procedure, shortened: as §1

OCUM1 = assay: as above; conditions: OCUM1 cells; 72 hours
Procedure, shortened: as §1

NCC59 = assay: as above; conditions: NCC59 cells; 72 hours
Procedure, shortened: as §1

YCC3 = assay: as above; conditions: YCC3 cells; 72 hours
Procedure, shortened: as §1

SNU16 = assay: as above; conditions: SNU16 cells; 72 hours
Procedure, shortened: as §1

NCC24 = assay: as above; conditions: NCC24 cells; 72 hours
Procedure, shortened: as §1

SNU601 = assay: as above; conditions: SNU601 cells; 72 hours
Procedure, shortened: as §1

MKN1 = assay: as above; conditions: MKN1 cells; 72 hours
Procedure, shortened: as §1

SK4 = assay: as above; conditions: SK4 cells (SEM subtype); 72 hours
Procedure, shortened: as §1

NCC20 = assay: as above; conditions: NCC20 cells; 72 hours
Procedure, shortened: as §1

SNU484 = assay: as above; conditions: SNU484 cells (SEM subtype); 72 hours
Procedure, shortened: as §1

YCC2 = assay: as above; conditions: YCC2 cells; 72 hours
Procedure, shortened: as §1

SNU719 = assay: as above; conditions: SNU719 cells; 72 hours
Procedure, shortened: as §2

MKN28 = assay: as above; conditions: MKN28 cells; 72 hours
Procedure, shortened: as §1

AGS = assay: as above; conditions: AGS cells (non-SEM subtype); 72 hours
Procedure, shortened: as §2

Hs746T = assay: as above; conditions: Hs746T cells (SEM subtype); 72 hours
Procedure, shortened: as §1

MKN74 = assay: as above; conditions: MKN74 cells; 72 hours
Procedure, shortened: as §2

NCC19 = assay: as above; conditions: NCC19 cells; 72 hours
Procedure, shortened: as §1

SNU216 = assay: as above; conditions: SNU216 cells (non-SEM subtype); 72 hours
Procedure, shortened: as §2

Row | SMILES | Average Area Under the Viability Curve (AUC), AUC norm value (FU97) | Average Area Under the Viability Curve (AUC), AUC norm value (NCI_N87) | Average Area Under the Viability Curve (AUC), AUC norm value (SNU620) | Average Area Under the Viability Curve (AUC), AUC norm value (SNU1967) | Average Area Under the Viability Curve (AUC), AUC norm value (SNU1750) | Average Area Under the Viability Curve (AUC), AUC norm value (KATO3) | Average Area Under the Viability Curve (AUC), AUC norm value (MKN45) | Average Area Under the Viability Curve (AUC), AUC norm value (SNU1) | Average Area Under the Viability Curve (AUC), AUC norm value (SNU638) | Average Area Under the Viability Curve (AUC), AUC norm value (YCC11) | Average Area Under the Viability Curve (AUC), AUC norm value (SNU668) | Average Area Under the Viability Curve (AUC), AUC norm value (OCUM1) | Average Area Under the Viability Curve (AUC), AUC norm value (NCC59) | Average Area Under the Viability Curve (AUC), AUC norm value (YCC3) | Average Area Under the Viability Curve (AUC), AUC norm value (SNU16) | Average Area Under the Viability Curve (AUC), AUC norm value (NCC24) | Average Area Under the Viability Curve (AUC), AUC norm value (SNU601) | Average Area Under the Viability Curve (AUC), AUC norm value (MKN1) | Average Area Under the Viability Curve (AUC), AUC norm value (SK4) | Average Area Under the Viability Curve (AUC), AUC norm value (NCC20) | also measured
1 | Cc1ccc([N+](=O)[O-])cc1S(=O)(=O)N(C)/N=C/c1cnc2ccc(Br)cn12 [PIK-75] | −0.5267 | −0.1238 | 0.7882 | −0.3048 | 0 | 3.793 | 1.17 | −0.3397 | 1.312 | −0.5398 | −0.428 | 0.5105 | −0.1565 | 1.723 | −1.485 | −0.07825 | 1.999 | −0.03458 | −1.009 | −0.4913 | AUC value [1]: high; Average Area Under the Viability Curve (AUC), AUC norm value (SNU484): −0.9469; Average Area Under the Viability Curve (AUC), AUC norm value (YCC2): 1.289; Average Area Under the Viability Curve (AUC), AUC norm value (SNU719): 5.726; Average Area Under the Viability Curve (AUC), AUC norm value (MKN28): 0.05865; Average Area Under the Viability Curve (AUC), AUC norm value (AGS): −1.2576; Average Area Under the Viability Curve (AUC), AUC norm value (Hs746T): 0.1171; Average Area Under the Viability Curve (AUC), AUC norm value (MKN74): 0.2052; Average Area Under the Viability Curve (AUC), AUC norm value (NCC19): 0.3535; Average Area Under the Viability Curve (AUC), AUC norm value (SNU216): 0.8132
2 | Cc1ccc(S(=O)(=O)/C=C/C#N)cc1 [BAY 11-7082 (BAY 11-7821), BAY 11-7082] | 0.0931 | 0.5073 | −0.1923 | −0.8028 | −1.012 | 0.7229 | 0.194 | 1.33 | −1.497 | −1.538 | 0.8081 | 0.7491 | 1.031 | 0.7116 | −0.6715 | 0.8357 | 0.7218 | −0.3248 | −0.7659 | −0.8287 | Average Area Under the Viability Curve (AUC), AUC norm value (SNU484): −0.4504; Average Area Under the Viability Curve (AUC), AUC norm value (YCC2): 0; Average Area Under the Viability Curve (AUC), AUC norm value (SNU719): 1.377; Average Area Under the Viability Curve (AUC), AUC norm value (MKN28): −0.1987; Average Area Under the Viability Curve (AUC), AUC norm value (AGS): −0.5085; Average Area Under the Viability Curve (AUC), AUC norm value (Hs746T): −0.5796; Average Area Under the Viability Curve (AUC), AUC norm value (MKN74): 0.03633; Average Area Under the Viability Curve (AUC), AUC norm value (NCC19): −0.07527; Average Area Under the Viability Curve (AUC), AUC norm value (SNU216): 0.3865
3 | NC(=O)Nc1cc(-c2cccc(F)c2)sc1C(=O)N[C@H]1CCCNC1 [AZD7762] | −0.7616 | 0.8405 | 0.2258 | −0.3626 | −0.9031 | 2.891 | −0.3384 | −0.2026 | 1.404 | −0.9757 | 1.537 | 0.511 | 2.107 | 1.638 | −1.119 | 1.107 | −0.957 | −0.01906 | −0.9696 | −0.4167 | Average Area Under the Viability Curve (AUC), AUC norm value (SNU484): 0; Average Area Under the Viability Curve (AUC), AUC norm value (YCC2): 0.451; Average Area Under the Viability Curve (AUC), AUC norm value (SNU719): 3.771; Average Area Under the Viability Curve (AUC), AUC norm value (MKN28): −0.3131; Average Area Under the Viability Curve (AUC), AUC norm value (AGS): −0.4403; Average Area Under the Viability Curve (AUC), AUC norm value (Hs746T): 1.376; Average Area Under the Viability Curve (AUC), AUC norm value (MKN74): −0.4773; Average Area Under the Viability Curve (AUC), AUC norm value (NCC19): 2.796; Average Area Under the Viability Curve (AUC), AUC norm value (SNU216): 0.7004
4 | CCCCC(CC)CNC(=N)NC(=N)NCCCCCCNC(=N)NC(=N)NCC(CC)CCCC (stereo not drawn) [Alexidine HCl] | −0.9535 | 2.531 | 0.0423 | 0.1828 | −0.6331 | 0.541 | 0.04553 | 0.7061 | −0.612 | −1.347 | −0.1375 | −0.04134 | 1.334 | 0.8273 | −1.849 | −0.4745 | 1.898 | 0.8687 | −0.9023 | 0.6963 | Average Area Under the Viability Curve (AUC), AUC norm value (SNU484): −1.212; Average Area Under the Viability Curve (AUC), AUC norm value (YCC2): −0.00823; Average Area Under the Viability Curve (AUC), AUC norm value (SNU719): 1.2; Average Area Under the Viability Curve (AUC), AUC norm value (MKN28): 0; Average Area Under the Viability Curve (AUC), AUC norm value (AGS): −0.444; Average Area Under the Viability Curve (AUC), AUC norm value (Hs746T): −0.2597; Average Area Under the Viability Curve (AUC), AUC norm value (MKN74): −0.3433; Average Area Under the Viability Curve (AUC), AUC norm value (NCC19): 1.132; Average Area Under the Viability Curve (AUC), AUC norm value (SNU216): 0.03777

— patent US20250129430A1, “HIGH ATP-AFFINITY PROTEIN AS THERAPEUTIC TARGET FOR INTRACTABLE CANCER MOLECULAR SUBTYPES AND INHIBITOR THEREOF” (VeraVerse Co., Ltd., priority 2021, published 2025)
